# Test results: patent US20230285516A1 (priority 2020, published 2023)
# Assays:
# Treg (CD4+/FOXP3+) cells = assay: FACS of spleen Foxp3+ regulatory T cells in CIA models; type: in vivo, mice; conditions: early and long-standing arthritis, first and second sacrifice, vs placebo
# Description: (§1) Early Arthritis Model. Fifty mice with the same characteristics were immunized at the base of the tail with 100 μg of chicken type II collagen emulsified in complete Freund's adjuvant. The boost was applied on day 21 at the base of the tail with 100 μg of type II collagen emulsified with Freund's incomplete adjuvant. On the same boosting day, the treatments (a-d) were applied every week for six weeks. Three animals were euthanized in the sixth week and three in the thirteenth week. The spleen, lymph nodes, joint tissue, liver, lungs, kidneys and heart were obtained in order to assess the inflammatory infiltrate, the predominant cell populations and the expression of pro- and anti-inflammatory cytokines.
# (§2) Established Arthritis Model. Arthritis was induced as in the previous model in 50 mice and the treatments were applied intramuscularly, after 2 weeks of the boost, every week for 6 weeks. Three animals were euthanized in the eighth week and three in the fifteenth week. The spleen, lymph nodes, joint tissue, liver, lungs, kidneys and heart were obtained in order to assess the inflammatory infiltrate, the predominant cell populations and the expression of pro- and anti-inflammatory cytokines.
# Cytometric evaluation. Using FACS, the percentage of populations of Th1 ([…]), Th2 (CD4^+/IL-4^+), Treg (CD4^+/FOXP3^+) Th17 (CD4^+/IL-17^+) and dendritic (CD4−/CD11c^+) cells in spleen cells.
# FIG. 10. Effect of type I polymerized collagen in the early (preventive) and long-standing (late or palliative) arthritis model on the percentage of spleen CD4+ T cell subpopulations. (A) Spleen cells obtained ex vivo in the early arthritis model during the first sacrifice. (B) Spleen cells obtained ex vivo in the early arthritis model during the second sacrifice. (C) Spleen cells obtained ex vivo in the long-standing arthritis model during the first sacrifice. […] The intracellular production of IL-17A, IL-4, IFN-γ and Foxp3 by CD4+ T cells was detected by flow cytometry. The results are representative of 6 mice analyzed in each group. […]
# mice with CIA = assay: Histopathological analysis of hind legs, collagen-induced arthritis (CIA) models; type: in vivo; conditions: H&E and PAS, intramuscular weekly for 6 weeks
# Description: as §1, §2
# Histological evaluation. The inflammatory infiltrate and tissue architecture were evaluated by H&E and Masson's trichrome staining and the content of proteoglycans, with the PAS technique. […]
compound,measurement,setting,value
"CN(Cc1cnc2nc(N)nc(N)c2n1)c1ccc(C(=O)N[C@@H](CCC(=O)O)C(=O)O)cc1 [MTX, methotrexate, reference compound]",Foxp3+ regulatory T cells,Treg (CD4+/FOXP3+) cells,significant reduction
same,"histopathology of joint tissue (inflammation, tissue architecture)",mice with CIA,induced some tissue abnormalities
